The record followed here is patent US5807742A, “Neurokinin receptor cell lines” (Merrell Pharmaceuticals Inc., priority 1996, dated 1998).

One may read the EC50 as the concentration at which the effect is half-maximal. Read a high EC50 as a less potent agent.

Starred links: 1 amine or outer side, 2 acyl side, 3 side chain; linkers in the order of their positions; H or OH if unused. Non-standard residues stand in square brackets, D forms with d. Residues, ends and D or L forms follow the SMILES beside them. NMeF = CN[C@@H](Cc1ccccc1)C(=O)O; Suc = O=C(CCC(=O)[*:2])[*:1]

Assay [1] has as its target T1, neurokinin A receptor (Bos taurus, UniProt P05363).
T1 construct: expressed in transfected cells
T1 sequence (P05363 1-384): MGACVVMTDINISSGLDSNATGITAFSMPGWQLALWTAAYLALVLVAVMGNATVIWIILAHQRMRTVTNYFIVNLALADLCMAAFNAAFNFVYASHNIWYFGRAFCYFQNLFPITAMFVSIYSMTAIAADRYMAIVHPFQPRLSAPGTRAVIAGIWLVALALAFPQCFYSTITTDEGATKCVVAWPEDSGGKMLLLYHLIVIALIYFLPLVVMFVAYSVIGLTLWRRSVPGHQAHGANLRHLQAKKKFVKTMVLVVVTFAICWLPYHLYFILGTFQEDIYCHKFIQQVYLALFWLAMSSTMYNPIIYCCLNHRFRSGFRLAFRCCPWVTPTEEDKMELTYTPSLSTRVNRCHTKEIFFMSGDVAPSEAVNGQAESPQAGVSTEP
Nature of the assay: [3H]inositol-1-phosphate (IP1) accumulation in SKLKB82#3 cells. It counts as cell-based, bovine.
Experimental: The culture was incubated for 22-24 hours under the same conditions. After this incubation, the cells were washed once with 1.0 ml of IMDM for ten minutes and incubated for ten minutes in 0.2 ml of incubation buffer (IMDM with 10 mM LiCl, 40 ug/ml bacitracin, 4 ug/ml leupeptin, and 4 ug/ml chymostatin). […] The reaction was terminated in 60 minutes by aspiring the media and adding 0.5 ml methanol. The cells were scraped from the wells and placed into chloroform resistant tubes. A second aliquot of 0.5 ml methanol was used to collect the remaining cells. The cell suspensions were mixed with 1.0 ml chloroform and 0.5 ml double distilled water to obtain a two phase separation. After centrifugation at 4200g for 10 minutes, 0.9 ml aliquots of the upper phase were added to 2.0 ml of distilled water and mixed. This mixture was passed through poly prep columns (Bio-Rad Laboratories, Richmond, Calif.) which consisted of 2.0 ml slurry of ten percent anion exchange resin in formate form (AG1-X8, 100-200 mesh, Bio-Rad Laboratories, Richmond, Calif.). The columns were washed three times with 5.0 ml of distilled water and two times with 5.0 ml of 5 mM sodium tetraborate/60 mM sodium formate (Baker, Phillipsburg, N.J.). […] The eluate was mixed with nine ml of Aquamix (West Chem., San Diego, Calif.) and the radioactivity was counted.

The target in assay [2] is T2, NKA receptor (hamster urinary bladder) (Mesocricetus auratus, UniProt P51144).
T2 construct: the hamster urinary bladder membranes were run as a standard control; from tissue; host or cells: hamster urinary bladder membranes
T2 sequence (P51144 1-384): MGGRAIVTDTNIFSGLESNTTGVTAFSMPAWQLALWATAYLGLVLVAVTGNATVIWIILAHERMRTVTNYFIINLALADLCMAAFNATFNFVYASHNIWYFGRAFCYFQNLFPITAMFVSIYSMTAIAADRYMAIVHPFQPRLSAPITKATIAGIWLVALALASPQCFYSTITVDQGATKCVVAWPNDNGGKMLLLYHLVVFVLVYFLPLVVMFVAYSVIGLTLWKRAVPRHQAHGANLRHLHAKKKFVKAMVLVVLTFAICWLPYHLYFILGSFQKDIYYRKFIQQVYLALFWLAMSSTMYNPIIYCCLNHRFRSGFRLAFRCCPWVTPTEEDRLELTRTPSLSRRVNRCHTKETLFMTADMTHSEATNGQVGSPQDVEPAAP
Nature of the assay: [125I]NKA receptor binding in hamster urinary bladder membranes (standard control). Conditions: FIG. 4. As for the experimental part: (§1) The homogenate is centrifuged at 48,000×g for 10 min at 4° C.

Assay [3] deals with T1, neurokinin A receptor. Nature of the assay: [125I]NKA receptor binding (saturation/Scatchard and competition) in B82 cells transfected with pSKR56S cDNA (SKLKB82#n). Details: species or system bovine. Conditions: SKLKB82#3 cells; FIG. 4. As for the experimental part: as §1

On to `CSCC[C@H](NC(=O)[C@H](CC(C)C)NC(=O)CNC(=O)[C@H](Cc1ccccc1)N(C)C(=O)[C@H](Cc1ccccc1)NC(=O)[C@H](CC(=O)O)NC(=O)CCC(=O)O)C(N)=O` [senktide] (Suc-DF[NMeF]GLM-NH2), for which the EC50 at neurokinin A receptor [1] is ~1300 µM. For the same molecule, the “potency rank-order, inhibition of [125I]NKA receptor binding (KI)” value in assay [2] is “followed by Nle^10 NKA (4-10), substance P, and senktide”; at neurokinin A receptor [3], “followed by Nle^10 NKA (4-10), substance P, and senktide”.
